Earlier results on 1 molecule are cited in patent publication US20090047259A1, “Methods of Using the Calcineurin A Variant CnA-beta 1” (priority 2005, published 2009).

Molecules are shown by their SMILES.

In this series the test system is calcineurin. As to conditions: mdx mice.

As to `CC(=O)OCC(=O)[C@@]12N=C(C)O[C@@H]1C[C@H]1[C@@H]3CCC4=CC(=O)C=C[C@]4(C)[C@H]3[C@@H](O)C[C@@]12C` [deflazacort], the “NFAT-dependent genes, including utrophin” value is “induced”; the calcineurin activity entry is “activated calcineurin”; the myocyte viability entry is given as “restored myocyte viability”.
